Test results: PMC5029806, “Streptococcus pneumoniae TIGR4 Flavodoxin: Structural and Biophysical Characterization of a Novel Drug Target” (PLoS ONE, 2016)

Molecular target: T1, Streptococcus pneumoniae TIGR4 flavodoxin (SpFld) (Streptococcus pneumoniae, UniProt A0A0H2UQC6)
T1 construct: gene fld; apo form for ITC, SeMet holo form for the crystal structure
Assay: ITC at […]°C ([…] NaCl, […] MES, pH […]); crystal structure of the FMN complex; thermal stabilization by CD, fluorescence and DSC
Assay type: binding

T1 sequence (A0A0H2UQC6 entry or part of it): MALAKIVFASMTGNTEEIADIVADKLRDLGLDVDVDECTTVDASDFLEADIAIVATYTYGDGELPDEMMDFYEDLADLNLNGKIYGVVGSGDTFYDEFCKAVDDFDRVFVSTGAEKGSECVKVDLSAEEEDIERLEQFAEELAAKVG

Compound `Cc1cc2nc3c(=O)[nH]c(=O)nc-3n(C[C@H](O)[C@H](O)[C@H](O)COP(=O)(O)O)c2cc1C` [FMN] has a Kd of 83 ± 9 nM.
